# Results: patent publication US7858640B2, “Quinolines and their therapeutic use” (Pulmagen Therapeutics (Asthma) Limited, priority 2005, dated 2010)
# Experiments:
# CRTH2 receptor [1] = target: T1, CRTH2 receptor (Homo sapiens, UniProt Q9Y5Y4); assay: Radioligand binding assay ([3H]-PGD2 displacement, SPA); design: expressed in transfected cells; host or cells: HEK cell membranes; conditions: HEK cell membranes expressing the CRTH2 receptor, 1 nM [3H]-PGD2; Ki from IC50 by Cheng-Prusoff
# T1 sequence (Q9Y5Y4 1-395): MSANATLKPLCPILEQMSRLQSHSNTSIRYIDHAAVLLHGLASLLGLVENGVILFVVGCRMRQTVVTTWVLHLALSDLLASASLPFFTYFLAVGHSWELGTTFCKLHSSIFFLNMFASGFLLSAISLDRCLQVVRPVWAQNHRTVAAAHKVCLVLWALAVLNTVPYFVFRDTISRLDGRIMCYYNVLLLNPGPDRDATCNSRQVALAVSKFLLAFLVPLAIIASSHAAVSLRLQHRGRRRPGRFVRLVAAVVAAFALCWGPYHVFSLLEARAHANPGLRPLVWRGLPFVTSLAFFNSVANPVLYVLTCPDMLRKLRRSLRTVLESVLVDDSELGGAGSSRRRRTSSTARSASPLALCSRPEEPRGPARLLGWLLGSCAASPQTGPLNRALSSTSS
# Experimental: Radioligand Binding Assay
# The receptor binding assay is performed in a final volume of 200 μL binding buffer [10 mM BES (pH 7.4), 1 mM EDTA, 10 mM manganese chloride, 0.01% BSA] and 1 nM [^3H]-PGD2 (Amersham Biosciences UK Ltd). Ligands are added in assay buffer containing a constant amount of DMSO (1% by volume). Total binding is determined using 1% by volume of DMSO in assay buffer and non-specific binding is determined using 10 μM of unlabeled PGD2 (Sigma). Human embryonic kidney (HEK) cell membranes (3.5 μg) expressing the CRTH2 receptor are incubated with 1.5 mg wheatgerm agglutinin SPA beads and 1 nM [^3H]-PGD2 (Amersham Biosciences UK Ltd) and the mixture incubated for 3 hours at room temperature. Bound [^3H]-PGD2 is detected using a Microbeta TRILUX liquid scintillation counter (Perkin Elmer). Compound IC50 value is determined using a 6-point dose response curve in duplicate with a semi-log compound dilution series. IC50 calculations are performed using Excel and XLfit (Microsoft), and this value is used to determine a Ki value for the test compound using the Cheng-Prusoff equation.
# CRTH2 receptor [2] = target: T1, CRTH2 receptor; assay: Functional assay: calcium mobilisation; assay type: cell-based; design: expressed in transfected cells; conditions: CHO-K1 cells co-expressing CRTH2 receptor and Gα16; antagonism of PGD2 at its EC80
# Experimental: Functional Assay: Calcium Mobilisation
# Stable CHO-K1 cells co-expressing the CRTH2 receptor and the G-protein Gα16 are seeded (40,000 cells per well in a plating volume of 75 μL in F-12 Hams supplemented with 1% foetal bovine serum) into collagen-coated 96-well, plates 24 hours prior to the assay. The cells are then loaded with a fluorescence-imaging plate reader (FLIPR) calcium kit dye (Calcium 3 kit, Molecular Devices Ltd) containing 5 mM final concentration of probenecid and incubated at 37° C. for 1 hour in a 5% CO2 atmosphere. The fluorescence emission caused by intracellular calcium mobilization elicited by the PGD2 at the CRTH2 receptor is determined with a FLEXstation benchtop scanning and integrated fluid transfer workstation (Molecular Devices Ltd). To detect antagonists and determine compound IC50, compounds are pre-incubated at varying concentrations with the loaded cells for 15 minutes at 37° C., 5% CO2, prior to the addition of the agonist at its EC80 value. Compounds and agonist are added in Hanks balanced salt solution containing 20 mM HEPES and 0.1% BSA). The fractional response values for each well are calculated by subtracting the basal response from the peak response. Results are calculated as the mean of triplicate wells using Excel and XLfit (Microsoft).
Ki (CRTH2 receptor [1]) [nM],IC50 (CRTH2 receptor [2]) [nM],SMILES
< 10000,< 1000,"Cc1nc2c(Cl)ccc(-c3nnn[nH]3)c2c(C)c1Cc1ccc(Cl)cc1 [Example 42, 8-chloro-3-(4-chlorobenzyl)-2,4-dimethyl-5-(1H-tetrazol-5-yl)quinoline]"
< 100,< 100,"Cc1nc2c(Cl)ccc(OCC(=O)O)c2c(OC(F)F)c1Cc1ccc(F)cc1 [Example 18, [8-chloro-4-difluoromethoxy-3-(4-fluorobenzyl)-2-methylquinolin-5-yloxy]acetic acid]"
< 100,< 1000,"Cc1nc2c(Cl)ccc(OCC(=O)O)c2c(C)c1Cc1ccc(S(C)(=O)=O)cc1 [Example 20, [8-chloro-3-(4-methanesulfonylbenzyl)-2,4-dimethylquinolin-5-yloxy]acetic Acid]"
< 100,< 100,"Cc1nc2c(Cl)ccc(CC(=O)O)c2c(C)c1Sc1ccc(Cl)cc1 [Example 12, [8-chloro-3-(4-chlorophenylsulfanyl)-2,4-dimethylquinolin-5-yl]acetic Acid]"
< 100,,"CCc1nc2c(Cl)ccc(OCC(=O)O)c2c(OC(F)F)c1Cc1ccc(Cl)cc1F [Example 62, [8-chloro-3-(4-chloro-2-fluorobenzyl)-4-difluoromethoxy-2-ethylquinolin-5-yloxy]acetic Acid]"
< 100,,"Cc1c(Cc2ccc(Cl)cc2)c(OC(F)F)nc2c(Cl)ccc(OC(C)C(=O)O)c12 (stereo not drawn) [Example 69, 2-[8-chloro-3-(4-chlorobenzyl)-2-difluoromethoxy-4-methylquinolin-5-yloxy]propionic Acid]"
< 10000,,"Cc1nc2cccc(OCC(=O)O)c2cc1Cc1ccc(Cl)cc1 [Example 79, [3-(4-chlorobenzyl)-2-methylquinolin-5-yloxy]acetic Acid]"
< 1000,,"Cc1nc2c(Cl)ccc(CC(=O)O)c2c(C)c1Cc1ccc(S(C)(=O)=O)cc1 [Example 28, [8-chloro-3-(4-methanesulfonylbenzyl)-2,4-dimethylquinolin-5-yl]acetic acid]"
< 100,,"Cc1c(Cc2ccc(S(C)(=O)=O)cc2)c(OC(F)F)nc2c(Cl)ccc(OCC(=O)O)c12 [Example 34, [8-chloro-2-difluoromethoxy-3-(4-methanesulfonylbenzyl)-4-methylquinolin-5-yloxy]acetic Acid]"
< 1000,,"Cc1nc2c(Cl)ccc(OCC(=O)O)c2cc1Cc1ccc(Cl)cc1 [Example 10, [8-chloro-3-(4-chlorobenzyl)-2-methylquinolin-5-yloxy]acetic Acid]"
< 100,,"Cc1nc2c(F)ccc(OCC(=O)O)c2c(OC(F)F)c1Cc1ccc(Cl)cc1 [Example 27, [3-(4-chlorobenzyl)-4-difluoromethoxy-8-fluoro-2-methylquinolin-5-yloxy]acetic acid]"
< 100,,"CCc1nc2c(Cl)ccc(OCC(=O)O)c2c(OC(F)F)c1Cc1ccc(Cl)cc1 [Example 39, [8-chloro-3-(4-chlorobenzyl)-4-difluoromethoxy-2-ethylquinolin-5-yloxy]acetic Acid]"
< 100,,"Cc1c(Cc2ccc(S(C)(=O)=O)cc2Cl)c(OC(F)F)nc2c(Cl)ccc(OCC(=O)O)c12 [Example 40, [8-chloro-3-(2-chloro-4-methanesulfonylbenzyl)-2-difluoromethoxy-4-methylquinolin-5-yloxy]acetic Acid]"
< 100,,"Cc1nc2c(Cl)ccc(OCC(=O)O)c2c(C)c1Sc1ccc(Cl)cc1 [Example 8, [8-chloro-3-(4-chlorophenylsulfanyl)-2,4-dimethylquinolin-5-yloxy]acetic Acid]"
< 100,,"Cc1c(Cc2ccc(Cl)cc2)c(OC(F)F)nc2c(F)ccc(OCC(=O)O)c12 [Example 30, [3-(4-chlorobenzyl)-2-difluoromethoxy-8-fluoro-4-methylquinolin-5-yloxy]-acetic Acid]"
< 100,,"CCc1nc2c(F)ccc(O[C@@H](C)C(=O)O)c2c(OC(F)F)c1Cc1ccc(Cl)cc1Cl [Example 74, (S)-2-[3-(2,4-dichlorobenzyl)-4-difluoromethoxy-2-ethyl-8-fluoroquinolin-5-yloxy]propionic Acid]"
< 100,,"CCc1nc2c(F)ccc(O[C@@H](C)C(=O)O)c2c(OC(F)F)c1Cc1ccc(C(=O)NC2CCC2)cc1Cl [Example 77, (S)-2-[3-(2-chloro-4-cyclobutylcarbamoylbenzyl)-4-difluoromethoxy-2-ethyl-8-fluoroquinolin-5-yloxy]propionic acid]"
